We go through 90 compounds from PubChem BioAssay AID816 (SRMLSC, 2007).

Calls of active or inactive are those of the source. No rule for the calls is given here.

The subject of the assay is S. cerevisiae GAL1 promoter reporter activation counterscreen. Description: GAL1 promoter activators in yeast, artefact control for yeast lifespan extension project, S. cerevisiae (AID 816).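 Also: yeast growth read after 24 h of incubation with compounds.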
One may read the EC50 as the concentration needed to bring the measured effect to its halfway point. `CN1CCC2(CC1)C(C#N)=C(N)NC(S)=C2C#N`: the EC50 is > 40 µM (inactive).

As to `O=[N+]([O-])c1cc2oc3c(c2c(C=NCc2ccncc2)c1O)CCCC3`, the EC50 is > 40 µM (inactive). On to `Oc1ccc2ccccc2c1/C=N/c1nccs1`, for which the EC50 was > 40 µM (inactive). To `Oc1ccc(Br)cc1C=Nc1ccc2[nH]ncc2c1` belongs > 40 µM (inactive); to `CCOC(=O)CN1C(=O)N[C@H](c2ccc(Br)cc2)C(C(C)=O)=C1C`, > 40 µM (inactive); to `COc1c(Br)cc(Br)cc1/C=N/n1c(C)nnc1C`, > 40 µM (inactive). To `O=C1/C(=C/c2cccnc2)CCC/C1=C\c1cccnc1` belongs > 40 µM (inactive); to `COc1ccc(O)c(C(=O)c2cc(C#N)c(=O)n(CC3CCCO3)c2)c1` (stereo not given), > 40 µM (inactive); to `C=CCn1c(C)cc(C(=O)CSc2nc3ccccc3c(=O)[nH]2)c1C`, > 40 µM (inactive).

As for `CCC(=O)Nc1ccccc1Sc1ncnc2scc(-c3ccccc3)c12`, the EC50 was > 40 µM (inactive). `Cc1ccc(-c2nc3ccc(Cl)cc3n2OC(=O)N(C)C)cc1`: the EC50 was > 40 µM (inactive).

For `CC(=O)Nc1nc(C)c(Oc2ccccc2)c(=O)[nH]1`, the EC50 was > 40 µM (inactive). The figure for `COn1c(SC2CCCCC2)nc2ccccc2c1=O` is > 40 µM (inactive); for `C=C(C(=O)c1ccccc1)C(C)CC(=O)c1ccccc1` (stereo not given) it is > 40 µM (inactive); for `CCc1oc2ccccc2c1C(=O)CCN1CCCCC1` it is > 40 µM (inactive). The figure for `O=C1c2ccccc2NC(c2cnc3ccccc3n2)N1O` (stereo not given) is > 40 µM (inactive); for `CC1CCc2cc(F)cc3c(O)c(C(=O)NCc4ccco4)c(=O)n1c23` (stereo not given) it is > 40 µM (inactive); for `CC(=O)Oc1c(C(=O)c2nnc(C)o2)c(=O)n(C)c2ccccc12` it is > 40 µM (inactive). The figure for `COc1ccc2c(=O)c3c(=O)n(Cc4ccco4)c(-c4ccc(C)cc4)nc3oc2c1` is > 40 µM (inactive); for `O=C(Nc1scc(-c2ccc(F)cc2)c1C(=O)O)c1ccco1` it is > 40 µM (inactive); for `CCCCC(=O)Nc1ccc(C(=O)NNC(=S)NC(=O)c2cccs2)cc1` it is > 40 µM (inactive). In the case of `CCOC(=O)c1cnc(-c2ccccc2)nc1Oc1ccc(Cl)cc1`, the EC50 was > 40 µM (inactive).

Consider `CCCCn1c(=O)c2c(O)cc(=O)oc2c2ccccc21`, for which the EC50 was > 40 µM (inactive). The figure for `Cc1c(NC(=O)C(=O)/C=C(/O)c2ccccc2)c(=O)n(-c2ccccc2)n1C` is > 40 µM (inactive).

Turning to `CCN1CCCC1CNC(=O)COc1cc(=O)n(C)c2ccccc12` (stereo not given), the EC50 is > 40 µM (inactive). To `CCCCSc1[nH]c(=O)c(C(=O)OCC)cc1C#N` belongs > 40 µM (inactive). For the compound `O=S1(=O)C=C(Sc2nnc(-c3ccccc3)o2)c2ccccc21`, the EC50 is > 40 µM (inactive). To `Cc1nn(-c2c(Cl)cc(Cl)cc2Cl)c(=O)c2ccccc12` belongs > 40 µM (inactive); to `Cc1ccc2nc(-c3ccc(NC(=O)CSc4ccccc4)cc3)[nH]c2c1`, > 40 µM (inactive); to `C=CCn1c(O)c(C(CC)=NCCN2CCOCC2)c(=O)[nH]c1=O`, > 40 µM (inactive). The figure for `O=C(/C=C/c1ccccc1)Nc1ncn[nH]1` is > 40 µM (inactive); for `CC(=O)Nc1ccc(C(=O)CSc2nnc(-c3ccc(O)cc3)n2CC2CCCO2)cc1` (stereo not given) it is > 40 µM (inactive); for `CC(C)c1ccc(C2=C(O)c3ccccc3C(=O)C2=O)cc1` it is > 40 µM (inactive). With `CC1(C)CC(=O)c2sc(NS(C)(=O)=O)nc2C1`, the EC50 is > 40 µM (inactive). To `C=C(C(=O)c1ccccc1)C(CC(=O)c1ccccc1)c1ccccc1` (stereo not given) belongs > 40 µM (inactive); to `Cc1ccccc1NC(=O)c1ccccc1`, > 40 µM (inactive); to `Cn1c(SCC(=O)N2CCCc3ccccc32)nnc1-c1c[nH]c2ccccc12`, > 40 µM (inactive).

Regarding `CCCC(=O)Nc1ccccc1Sc1ncnc2scc(-c3ccccc3)c12`, the EC50 was > 40 µM (inactive). With `CCOC(=O)Cc1csc(NC(=O)c2c(O)c3ccccc3n(CC(C)C)c2=O)n1`, the EC50 is > 40 µM (inactive). To `C[C@]12CC[C@@H](O)C[C@@H]1CC[C@@H]1[C@@H]2CC[C@]2(C)[C@@H](O)CC[C@@H]12` belongs > 40 µM (inactive); to `Cc1cc(N=Cc2c(O)ccc3ccccc23)no1`, > 40 µM (inactive). To `O=C(/C=C(\O)c1ccc(Cl)cc1)C(=O)NNC(=O)C(O)(c1ccccc1)c1ccccc1` belongs > 40 µM (inactive); to `O=c1cc(O)c2c(=O)n(-c3ccccc3)c3c(c2o1)CCCCCC3`, > 40 µM (inactive); to `O=C1CC(c2ccccc2)CC(O)=C1C=NCCN1CCOCC1` (stereo not given), > 40 µM (inactive).

Turning to `O=c1c2ccccc2nc(-c2cccc(Cl)c2)n1O`, the EC50 was > 40 µM (inactive). To `CCCCCCCC(=O)N/N=C(/C)c1c(O)cc(C)oc1=O` belongs > 40 µM (inactive).

As for `CS(=O)(=O)c1nc(-c2ccccc2)cc(C(F)(F)F)n1`, the EC50 is > 40 µM (inactive). The figure for `CC(=C1C(=O)c2ccccc2C1=O)N1CCN(C/C=C/c2ccccc2)CC1` is > 40 µM (inactive). The figure for `CCc1c(C)c(C#N)c2nc3ccccc3n2c1Cl` is > 40 µM (inactive); for `N#Cc1cc(C(=O)c2cc(F)ccc2O)cn(-c2nccs2)c1=O` it is > 40 µM (inactive). To `C=CCn1c(C)cc(C(=O)COc2ncnc3sccc23)c1C` belongs > 40 µM (inactive); to `C=C1C(=O)C=C2CN(C(=O)c3ccccc3)[C@@](Cc3ccc(F)cc3)(C(=O)OC)[C@@H]12`, > 40 µM (inactive); to `CCc1nnc(NC(=O)c2cccc(S(=O)(=O)N(C)c3ccccc3)c2)s1`, > 40 µM (inactive). As to `COc1ccccc1CN(Cc1nc2ccccc2c(=O)[nH]1)C(=O)Nc1cccc(C)c1`, the EC50 was > 40 µM (inactive). To `O=C(/C=C/c1ccccc1)C1C(=O)c2ccccc2C1=O` belongs > 40 µM (inactive). To `CCOC(=O)C1C(=O)C(C(C)=O)C(=O)CC1CC(C)SCC` (stereo not given) belongs > 40 µM (inactive).

With `O=C(Oc1cc(=O)n2ccccc2n1)c1ccccc1`, the EC50 is > 40 µM (inactive). To `O=C(CSc1nc2ccccc2o1)c1cc2ccccc2oc1=O` belongs > 40 µM (inactive). The figure for `O=C(CCc1ccccc1)NCCCN1CCOCC1` is > 40 µM (inactive). As to `CN(C)CC(C(=O)c1ccccc1)c1ccccc1` (stereo not given), the EC50 was > 40 µM (inactive). For `O=C(Nc1nccs1)c1ccc2c(=O)n3c(nc2c1)CCCCC3`, the EC50 was > 40 µM (inactive).

With `COc1ccc(OC)c(NC(=S)N2CCN(C/C=C/c3ccccc3)CC2)c1`, the EC50 was > 40 µM (inactive). For `COc1ccccc1C(=O)Oc1ccc2c(c1)O/C(=C\c1ccncc1)C2=O`, the EC50 was > 40 µM (inactive). The figure for `COc1ccc(OC)c(C2C(C(C)=O)=C(O)C(=O)N2Cc2cccnc2)c1` (stereo not given) is > 40 µM (inactive). The figure for `Cc1ccc(/C=C/C(=O)C2C(=O)c3ccccc3C2=O)cc1` is > 40 µM (inactive); for `O=C(c1ccc(F)cc1)C(CN1CCOCC1)c1ccccc1` (stereo not given) it is > 40 µM (inactive). The figure for `Cc1ccc(N(C(=O)CS(=O)CC(=O)Nc2ccc(F)cc2)C(C(=O)NC2CCCCC2)c2ccco2)cc1` (stereo not given) is > 40 µM (inactive); for `Cc1[nH]n(-c2ccccc2)c(=O)c1N=Nc1nccs1` it is > 40 µM (inactive); for `Cc1cc(NS(=O)(=O)c2ccc(CC(C)C)cc2)no1` it is > 40 µM (inactive). With `CCOc1cc(/C=C\[N+](=O)[O-])ccc1OCC(=O)Nc1ccccc1C`, the EC50 is > 40 µM (inactive). To `COc1cc(OC)cc(-c2nc3ccccc3c(=O)n2OC(=O)c2ccccc2C)c1` belongs > 40 µM (inactive); to `CC1CCCN(c2nc3ccccc3nc2C(C#N)C(=O)OC2CCCCC2)C1` (stereo not given), > 40 µM (inactive). For `CCCCn1c(/N=C/c2ccccc2NS(=O)(=O)c2ccc(C)cc2)nc2ccccc21`, the EC50 was > 40 µM (inactive).

`CCCCOC(=O)CSc1nc2c(c(=O)[nH]c(=O)n2C)n1C/C=C(\C)Cl`: the EC50 is > 40 µM (inactive). The figure for `COc1ccc(NC(=S)N2CCN(CCN=CC3=C(O)CC(c4ccccc4)CC3=O)CC2)cc1` (stereo not given) is > 40 µM (inactive). To `CCc1[nH]nc2c1C(c1ccc(Br)s1)C(C#N)=C(N)O2` (stereo not given) belongs > 40 µM (inactive); to `CC(C)=C1C(=O)NN(c2ccc(C)c(Cl)c2)C1=O`, > 40 µM (inactive). The figure for `Cc1cccc(OC(=O)n2c(=S)oc3cc(Cl)ccc32)c1` is > 40 µM (inactive). On to `CCOc1ccc2nc(NCCNC(=O)Nc3ccccc3)c(C#N)cc2c1`, for which the EC50 is > 40 µM (inactive). The figure for `O=S(=O)(Nc1cccc2c1CCCC2)c1ccc(Cl)cc1` is > 40 µM (inactive); for `COc1ccc2c3c(cccc13)C(=O)N(O)C2=O` it is > 40 µM (inactive). Regarding `CCCCCC(=O)N1CCN(CCN=CC2=C(O)CC(c3ccc(OC)c(OC)c3)CC2=O)CC1` (stereo not given), the EC50 was > 40 µM (inactive). As for `CCCN1C(=O)/C(=C/c2ccncc2)SC1=S`, the EC50 is > 40 µM (inactive). With `CCOC(=O)CC1=NN(c2ccccc2)C(=O)/C1=C\c1ccc(OC)cc1OC`, the EC50 was > 40 µM (inactive).

With `O=C(c1ccccc1)C(CN1CCCC1)c1ccccc1` (stereo not given), the EC50 was > 40 µM (inactive). For the compound `Cc1ccsc1C(=O)Nc1nnc(-c2ccco2)o1`, the EC50 is > 40 µM (inactive). To `C/C=C/Cn1c(N2CCCCCC2)nc2c1c(=O)[nH]c(=O)n2C` belongs > 40 µM (inactive); to `CCCCC(=Nc1ccc(N)cc1)C1=C(O)C(C(=O)OC)C(C)(C)CC1=O` (stereo not given), > 40 µM (inactive); to `CN1CCN(CC(=O)Nc2ccc(Cl)cc2Cl)CC1`, > 40 µM (inactive). Take `Cc1ccc(/C=C2/C(=O)NC(=O)N(CCc3ccc(F)cc3)C2=O)o1`: the EC50 is > 40 µM (inactive).
